# Test results as given in ChEMBL document CHEMBL4811315, “Design, synthesis and biochemical evaluation of novel carbonic anhydrase inhibitors triggered by structural knowledge on hCA VII” (Bioorg Med Chem, 2021).
# pKi: −log10 of the molar value.
# Biological target: Carbonic anhydrase 9 (Homo sapiens, UniProt Q16790)
# Description: Inhibition of full length human CA9 incubated for 15 mins by phenol red dye based stopped flow CO2 hydration assay
row,pKi,Structure (SMILES)
1,5.53,Cc1ccsc1C(=O)N1CCN(C(=O)c2ccc(S(N)(=O)=O)cc2)CC1
2,8.04,NS(=O)(=O)c1ccc(C(=O)N2CCN(C(=O)c3cc4ccccc4[nH]3)CC2)cc1
3,7.01,NS(=O)(=O)c1ccc(C(=O)N2CCN(C(=O)c3cc4ccccc4s3)CC2)cc1
4,6.90,NS(=O)(=O)c1ccc(C(=O)N2CCN(C(=O)c3sccc3Br)CC2)cc1
5,6.01,NS(=O)(=O)c1ccc(C(=O)N2CCN(C(=O)c3ccc([N+](=O)[O-])o3)CC2)cc1
6,5.50,NS(=O)(=O)c1ccc(C(=O)N2CCN(C(=O)c3ccco3)CC2)cc1
7,6.56,NS(=O)(=O)c1ccc(C(=O)N2CCN(C(=O)c3ccc[nH]3)CC2)cc1

# The remaining lines, values behind:
row,Structure (SMILES),pKi
1,NS(=O)(=O)c1ccc(C(=O)N2CCN(C(=O)c3ccc([N+](=O)[O-])s3)CC2)cc1,6.77
2,NS(=O)(=O)c1ccc(C(=O)N2CCN(C(=O)c3cccs3)CC2)cc1,5.48
3,Cc1ccoc1C(=O)N1CCN(C(=O)c2ccc(S(N)(=O)=O)cc2)CC1,5.52
4,NS(=O)(=O)c1ccc(C(=O)N2CCN(C(=O)c3ccc(Cl)s3)CC2)cc1,6.42
5,NS(=O)(=O)c1ccc(C(=O)N2CCN(C(=O)c3ccc4ccccc4c3)CC2)cc1,5.52
6,NS(=O)(=O)c1ccc(C(=O)N2CCN(C(=O)c3cc4ccccc4o3)CC2)cc1,5.53
